Experimental data: PubChem BioAssay (NCI)
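Exposure lasted 48 hours, with cells grown in 96-well plates and compounds tested at five concentrations. Here, GI50 denotes the concentration required for 50% inhibition of growth. TGI: concentration producing complete growth inhibition.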

Tests used:
Test in all cases: NCI-60 cell line screen, 48 h
DU-145 prostate = tested on: DU-145 prostate
MDA-MB-231 breast = tested on: MDA-MB-231 breast
NCI/ADR-RES ovarian = tested on: NCI/ADR-RES ovarian
PC-3 prostate = tested on: PC-3 prostate
DLD-1 colon = tested on: DLD-1 colon
DMS 114 small cell lung = tested on: DMS 114 small cell lung
HOP-18 NSCLC = tested on: HOP-18 NSCLC
KM20L2 colon = tested on: KM20L2 colon
M19-MEL melanoma = tested on: M19-MEL melanoma
XF 498 CNS = tested on: XF 498 CNS

## CNC(=O)c1nn(C)c2c1C(C)(C)Cc1cnc(Nc3ccc(N4CCN(C)CC4)cc3)nc1-2
DU-145 prostate
  GI50: 0.995 µM
  TGI: > 10 µM
MDA-MB-231 breast
  GI50: 0.523 µM
  TGI: > 10 µM
NCI/ADR-RES ovarian
  GI50: 3 µM
  TGI: > 10 µM
PC-3 prostate
  GI50: 0.368 µM
  TGI: > 10 µM

## Cc1cc(I)cc(CN(C)CCCN2CCCC2)c1O
DU-145 prostate
  GI50: 31.4 µM
  TGI: > 100 µM
MDA-MB-231 breast
  GI50: 18.6 µM
  TGI: 49.9 µM
NCI/ADR-RES ovarian
  GI50: 36.7 µM
  TGI: > 100 µM
PC-3 prostate
  GI50: 25 µM
  TGI: 73.7 µM

## CCOC(=O)/C(C#N)=C\C=C(/Cl)c1ccc(Cl)cc1
DU-145 prostate
  GI50: 12.9 µM
  TGI: 25.5 µM
MDA-MB-231 breast
  GI50: 22.1 µM
  TGI: 45.9 µM
NCI/ADR-RES ovarian
  GI50: 22 µM
  TGI: 44.6 µM
PC-3 prostate
  GI50: 15 µM
  TGI: 33.5 µM

## C[C@H]1CCCC(O)C(O)[C@@H]2C[C@H](O[Si](C)(C)C(C)(C)C)C[C@H]2[C@H](O[Si](C)(C)C(C)(C)C)C(O)C(O)C(=O)O1 (some centres not stated)
DU-145 prostate
  GI50: 28.3 µM
  TGI: > 100 µM
MDA-MB-231 breast
  GI50: 14.2 µM
  TGI: 38.5 µM
NCI/ADR-RES ovarian
  GI50: 27.2 µM
  TGI: > 100 µM
PC-3 prostate
  GI50: 46.1 µM
  TGI: > 100 µM

## COc1ccc(C(=O)c2ccc([As]=O)cc2)cc1 (configuration not stated)
DU-145 prostate
  GI50: 0.0735 µM
  TGI: 0.198 µM
MDA-MB-231 breast
  GI50: 0.087 µM
  TGI: 0.242 µM
PC-3 prostate
  GI50: 0.056 µM
  TGI: 0.185 µM

## C(=N\Nc1nnn(Cc2ccccc2)n1)/c1ccccc1
DU-145 prostate
  GI50: 6.73 µM
  TGI: > 100 µM
MDA-MB-231 breast
  GI50: 7.54 µM
  TGI: > 79.6 µM
NCI/ADR-RES ovarian
  GI50: 0.545 µM
  TGI: 8.78 µM
PC-3 prostate
  GI50: 6.82 µM
  TGI: > 100 µM

## Cn1cc(C2=C(c3cn(C4CCN(Cc5ccccn5)CC4)c4ccccc34)C(=O)NC2=O)c2ccccc21
DU-145 prostate
  GI50: > 100 µM
  TGI: > 100 µM
MDA-MB-231 breast
  GI50: > 100 µM
  TGI: > 100 µM
NCI/ADR-RES ovarian
  GI50: 4.34 µM
  TGI: > 100 µM
PC-3 prostate
  GI50: 3.97 µM
  TGI: > 100 µM

## CN1/C(=C\C=C\C2=[N+](C)c3ccccc3C2(C)C)C(C)(C)c2ccccc21
DU-145 prostate
  GI50: 0.105 µM
  TGI: 12.1 µM
MDA-MB-231 breast
  GI50: 0.248 µM
  TGI: 1.58 µM
NCI/ADR-RES ovarian
  GI50: 1.29 µM
  TGI: 4.97 µM
PC-3 prostate
  GI50: 0.0455 µM
  TGI: 5.97 µM

## O=C(N/N=C/c1ccccc1O)c1ccccc1
DU-145 prostate
  GI50: 3.27 µM
  TGI: > 100 µM
MDA-MB-231 breast
  GI50: 5.11 µM
  TGI: > 100 µM
NCI/ADR-RES ovarian
  GI50: 1.94 µM
  TGI: 27.6 µM
PC-3 prostate
  GI50: 6.53 µM
  TGI: > 100 µM

## O=C(Nc1ccc(Cl)c(Cl)c1)NS(=O)(=O)c1cnccc1Oc1ccc(F)cc1
DU-145 prostate
  GI50: 4.19 µM
  TGI: 28.8 µM
MDA-MB-231 breast
  GI50: 5.5 µM
  TGI: 38.5 µM
NCI/ADR-RES ovarian
  GI50: 4.38 µM
  TGI: > 100 µM
PC-3 prostate
  GI50: 3.25 µM
  TGI: > 100 µM

## O=C1CCCCN1CCCCC#Cc1cccc(C#Cc2cccnc2)c1
DU-145 prostate
  GI50: 43.2 µM
  TGI: > 100 µM
MDA-MB-231 breast
  GI50: 12 µM
  TGI: 27.7 µM
NCI/ADR-RES ovarian
  GI50: 17.5 µM
  TGI: 85.4 µM
PC-3 prostate
  GI50: 11.6 µM
  TGI: > 100 µM

## CCN(C(=O)/C=C/c1ccco1)c1ccccc1
DU-145 prostate
  TGI: > 100 µM
MDA-MB-231 breast
  TGI: > 100 µM
NCI/ADR-RES ovarian
  TGI: > 100 µM
PC-3 prostate
  TGI: > 100 µM

## CCCCCCCCCCCCCCCC[N+]1(C)CCOCC1
DU-145 prostate
  GI50: 2.41 µM
  TGI: 6.79 µM
MDA-MB-231 breast
  GI50: 1.39 µM
  TGI: 3.94 µM
NCI/ADR-RES ovarian
  GI50: 18.1 µM
  TGI: 44.9 µM
PC-3 prostate
  GI50: 0.655 µM
  TGI: 2.43 µM

## CCNC(=O)COc1ccc(Cl)cc1Cl
DLD-1 colon
  TGI: > 100 µM
DMS 114 small cell lung
  TGI: > 100 µM
HOP-18 NSCLC
  TGI: > 100 µM
KM20L2 colon
  TGI: > 100 µM
M19-MEL melanoma
  TGI: > 100 µM

## O=c1oc2ccc(I)cc2c(=O)n1-c1ccc(Cl)cc1F
DU-145 prostate
  GI50: 2.28 µM
  TGI: 21.7 µM
MDA-MB-231 breast
  GI50: 1.27 µM
  TGI: 5.71 µM
NCI/ADR-RES ovarian
  GI50: 1.87 µM
  TGI: 21.7 µM
PC-3 prostate
  GI50: 2 µM
  TGI: 7.11 µM

## COC(=O)C1(C(=O)OC)CC(=O)c2cc3c(cc2-c2c(cc(OC)c(OC)c2OC)C1)OCO3
DLD-1 colon
  TGI: > 211 µM
HOP-18 NSCLC
  TGI: > 211 µM
KM20L2 colon
  TGI: > 211 µM
M19-MEL melanoma
  TGI: > 211 µM

## CC(=O)/C(=C/c1ccccc1F)C(=O)c1ccccc1
DU-145 prostate
  TGI: > 100 µM
MDA-MB-231 breast
  TGI: 92.5 µM
NCI/ADR-RES ovarian
  TGI: > 100 µM
PC-3 prostate
  TGI: > 100 µM

## CC(C)CCC1(CCN)C(=O)NC(=O)NC1=O
DU-145 prostate
  TGI: > 100 µM
MDA-MB-231 breast
  TGI: > 100 µM
NCI/ADR-RES ovarian
  TGI: > 100 µM
PC-3 prostate
  TGI: > 100 µM

## O=C(O)[C@@H](Cc1ccc2ccccc2c1)NC(=O)n1c2ccccc2c2ccccc21
DU-145 prostate
  GI50: 3.4 µM
  TGI: > 100 µM
MDA-MB-231 breast
  GI50: 3.65 µM
  TGI: 17.3 µM
NCI/ADR-RES ovarian
  GI50: 2.83 µM
  TGI: 9.65 µM
PC-3 prostate
  GI50: 1.87 µM
  TGI: 15.8 µM

## c1ccc2[nH]c(-c3ccc(Nc4nc(N5CCCCC5)nc(N5CCOCC5)n4)cc3)nc2c1
DU-145 prostate
  GI50: 4.28 µM
  TGI: > 100 µM
MDA-MB-231 breast
  GI50: 2.5 µM
  TGI: 7.52 µM
NCI/ADR-RES ovarian
  GI50: 4.69 µM
  TGI: 55.2 µM
PC-3 prostate
  GI50: 3.05 µM
  TGI: 9.13 µM

## O=c1c2cc(Br)ccc2nc(CCl)n1-c1ccc(O)c([N+](=O)[O-])c1
DLD-1 colon
  TGI: 33.4 µM
KM20L2 colon
  TGI: > 100 µM
M19-MEL melanoma
  TGI: 36.2 µM
XF 498 CNS
  TGI: 29 µM

## O=c1cc(/C=C/c2ccccc2)[nH]c2cc3c(cc12)OCO3
DU-145 prostate
  TGI: > 100 µM
MDA-MB-231 breast
  TGI: 9.18 µM
NCI/ADR-RES ovarian
  TGI: 5.38 µM

## C=C1C[C@@H]2CC[C@@]34C[C@H]5O[C@H]6[C@@H](O3)[C@H]3O[C@H](CC[C@@H]3O[C@H]6[C@@H]5O4)CC(=O)C[C@@H]3[C@@H](OC)[C@@H](C[C@H](O)CN)O[C@H]3C[C@H]3O[C@@H](CC[C@@H]1O2)C[C@@H](C)C3=C
DU-145 prostate
  GI50: < 0.01 µM
  TGI: > 100 µM
MDA-MB-231 breast
  GI50: < 0.01 µM
  TGI: > 53.5 µM
NCI/ADR-RES ovarian
  GI50: 2.69 µM
  TGI: > 100 µM
PC-3 prostate
  GI50: < 0.01 µM

## CCNC(=O)c1noc(-c2cc(C(C)C)c(O)cc2O)c1-c1ccc(CN2CCOCC2)cc1
DU-145 prostate
  GI50: < 0.0222 µM
  TGI: 21.1 µM
MDA-MB-231 breast
  GI50: 0.0747 µM
  TGI: 15.7 µM
NCI/ADR-RES ovarian
  GI50: 0.313 µM
  TGI: 44.1 µM
PC-3 prostate
  GI50: 0.0648 µM
  TGI: 66.6 µM

## COC(=O)C1(C)Cc2cc(OC(C)=O)c(OC(C)=O)cc2N1 (configuration not stated)
DU-145 prostate
  GI50: 14.1 µM
  TGI: > 58.9 µM
MDA-MB-231 breast
  GI50: 17.8 µM
  TGI: 56.5 µM
NCI/ADR-RES ovarian
  GI50: 16 µM
  TGI: > 75.5 µM
PC-3 prostate
  GI50: 9.64 µM
  TGI: > 72.6 µM

## CN(C)CCNC(=O)Cn1ccc(=O)c2c([N+](=O)[O-])cccc21
DU-145 prostate
  TGI: > 100 µM
MDA-MB-231 breast
  TGI: > 100 µM
PC-3 prostate
  TGI: > 100 µM
